Results: patent US20230285307A1, “Dispersible Tablet Formulations Comprising Dolutegravir” (ViiV Healthcare Company, priority 2020, published 2023)

Assays:
[1] = Dolutegravir solubility in the presence of monovalent and divalent ions; type: physicochemical; details: thermodynamic from solid, 20 mg in 12 ml
Method: Solubility was determined by dissolving 20 mg of dolutegravir into 12 ml of water containing the specified ion (see Table 1) at a concentration of 500 ppm.

[2] = Solubility of dolutegravir in types of potable water (FIG. 1); type: physicochemical; details: water with no ions present (purified water) vs other types of potable water
Source text: The solubility of dolutegravir is affected by the use of different types of potable water, for example purified water, tap water and different brands of bottled water (see FIG. 1). The reason for this difference in solubility is believed to be due to the presence of ions typically found in water. When water with no ions present (purified water) is used to disperse dolutegravir, the solubility of dolutegravir is increased and a significant bitter taste may be observed.

solubility ([1]; aqueous buffer, water containing calcium ion 500 ppm): 30 µg/mL
solubility ([1]; aqueous buffer, water containing magnesium ion 500 ppm): 210 µg/mL
solubility ([1]; aqueous buffer, water containing potassium ion 500 ppm): 780 µg/mL
solubility ([1]; aqueous buffer, water containing sodium ion 500 ppm): 460 µg/mL
solubility ([1]; no ion (purified water)): 1200 µg/mL
solubility of dolutegravir [2]: increased
SMILES: C[C@@H]1CCO[C@H]2Cn3cc(C(=O)NCc4ccc(F)cc4F)c(=O)c(O)c3C(=O)N12 [Dolutegravir, (4RX,12aS)-N-[(2,4-difluorophenyl)methyl]-7-hydroxy-4-methyl-6,8-dioxo-3,4,12,12a-tetrahydro-2H-pyrido[5,6]pyrazino[2,6-b][1,3]oxazine-9-carboxamide]
